Results as given in patent publication US9149038B2, “4-amino-6-(heterocyclic)picolinates and 6-amino-2-(heterocyclic)pyrimidine-4-carboxylates and their use as herbicides” (Dow AgroSciences LLC, priority 2013, dated 2015).
Where two headings read alike, the source gives them in different places.

Key:
[1] = test system: Key Broadleaf Weed and Crop Species; test: Post-Emergent Test II: postemergent herbicidal activity, visual rating after 14 d (Table 7); type: in vivo; details: post-emergence, 336 h; for pest or weed control at 35 g/ha: 35 g ai/ha; for pest or weed control at 70 g/ha: 70 g ai/ha; for pest or weed control at 140 g/ha: 140 g ai/ha
In short: (§1)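 Visual scoring at 14 d, 0 (no injury) to 100 (complete kill), relative to untreated plants. Postemergent overhead track-sprayer application, 187 L/ha, at a top rate plus serial ½×–1/16× rates, to plants grown 7–21 d at about 23–29° C day under a 15 h photoperiod, then subirrigated.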

[2] = test system: Key Grass and Sedge Weeds as well as Grass Crops; test: Post-Emergent Test II: postemergent herbicidal activity, visual rating after 14 d (Table 8); type: in vivo; details: post-emergence, 336 h; for pest or weed control at 35 g/ha: 35 g ai/ha; for pest or weed control at 70 g/ha: 70 g ai/ha; for pest or weed control at 140 g/ha: 140 g ai/ha
In short: as §1

[3] = lambsquarters (Chenopodium album), read-out: Visual Growth Reduction (%) 14 Days After Application CHEAL
[4] = oilseed rape, canola (Brassica napus), read-out: Visual Growth Reduction (%) 14 Days After Application BRSNN
[5] = redroot pigweed (Amaranthus retroflexus), read-out: Visual Growth Reduction (%) 14 Days After Application AMARE
[6] = sunflower (Helianthus annuus), read-out: Visual Growth Reduction (%) 14 Days After Application HELAN
[7] = velvetleaf (Abutilon theophrasti), read-out: Visual Growth Reduction (%) 14 Days After Application ABUTH
[8] = wild poinsettia (Euphorbia heterophylla), read-out: Visual Growth Reduction (%) 14 Days After Application EPHHL
[9] = barnyardgrass (Echinochloa crus-galli), read-out: Visual Growth Reduction (%) 14 Days After Application ECHCG
[10] = maize, corn (Zea mays), read-out: Visual Growth Reduction (%) 14 Days After Application ZEAMX
[11] = rice (Oryza sativa), read-out: Visual Growth Reduction (%) 14 Days After Application ORYSA
[12] = wheat, spring (Triticum aestivum), read-out: Visual Growth Reduction (%) 14 Days After Application TRZAS
[13] = yellow nutsedge (Cyperus esculentus), read-out: Visual Growth Reduction (%) 14 Days After Application CYPES

COC(=O)c1nc(-c2cc3c(cc2F)OC(F)(F)O3)cc(N)c1Cl [Compound 32]
0 to 29%: pest or weed control at 35 g/ha [1, 5] | pest or weed control at 35 g/ha [1, 8] | pest or weed control at 35 g/ha [2, 11] | pest or weed control at 70 g/ha [2, 11] | pest or weed control at 140 g/ha [2, 11]
60 to 74%: pest or weed control at 35 g/ha [1, 4] | pest or weed control at 70 g/ha [1, 4] | pest or weed control at 70 g/ha [1, 8] | pest or weed control at 140 g/ha [1, 8] | pest or weed control at 35 g/ha [2, 9] | pest or weed control at 35 g/ha [2, 10] | pest or weed control at 70 g/ha [2, 10] | pest or weed control at 70 g/ha [2, 12] | pest or weed control at 140 g/ha [2, 12]
95 to 100%: pest or weed control at 35 g/ha [1, 3] | pest or weed control at 70 g/ha [1, 3] | pest or weed control at 140 g/ha [1, 3] | pest or weed control at 35 g/ha [2, 13] | pest or weed control at 70 g/ha [2, 13] | pest or weed control at 140 g/ha [2, 13]
75 to 84%: pest or weed control at 140 g/ha [1, 4] | pest or weed control at 140 g/ha [1, 5] | pest or weed control at 35 g/ha [1, 6] | pest or weed control at 70 g/ha [1, 6] | pest or weed control at 140 g/ha [1, 6] | pest or weed control at 70 g/ha [2, 9] | pest or weed control at 140 g/ha [2, 9] | pest or weed control at 140 g/ha [2, 10]
85 to 94%: pest or weed control at 35 g/ha [1, 7] | pest or weed control at 70 g/ha [1, 7] | pest or weed control at 140 g/ha [1, 7]
45 to 59%: pest or weed control at 70 g/ha [1, 5] | pest or weed control at 35 g/ha [2, 12]
